Test results as given in US20250367308A1, “LIGAND-DRUG CONJUGATE OF CAMPTOTHECIN ANALOGS, INTERMEDIATES, PREPARATION METHOD THEREFOR, PHARMACEUTICAL COMPOSITION AND APPLICATION THEREOF” (SHANGHAI MICURX PHARMACEUTICAL CO.,LTD., priority 2022, published 2025).
Like-named read-outs stand apart in the source and are kept apart here.

Tested on: Human lung adenocarcinoma cell line A549
Assay: In vitro cytotoxicity test of camptothecin payloads (CellTiter-Glo)
Assay type: cell-based
Conditions: for IC50: Homo sapiens, A549, 72 h, read-out: A549 Cytotoxicity IC50 (nM)
Description: Human lung adenocarcinoma cell line A549 was used to evaluate the cytotoxicity of small molecule fragment of the present invention. A549 cells were seeded to a 96-well plate at 2000 cells per well.

SMILES | IC50 [nM] | other results
CC[C@@]1(O)C(=O)OCc2c1cc1n(c2=O)Cc2c-1nc1ccc(OCC(=O)N3CCCCC3)cc1c2CN1CCC([C@@H](C)O)CC1 [Example 40, (S)-4-ethyl-4-hydroxy-11-((4-((R)-1-hydroxyethyl)piperidin-1-yl)methyl)-9-(2-oxo-2-(piperidin-1-yl)ethoxy)-1,12-dihydro-14H-pyrano[3′,4′:6,7] indolizino[1,2-b]quinoline-3,14(4H)-dione] | 1290 | –
CC[C@@]1(O)C(=O)OCc2c1cc1n(c2=O)Cc2c-1nc1cc3c(cc1c2CN1CCC([C@@H](C)O)CC1)OCCO3 [Example 36] | 38.4 | –
CC[C@@]1(O)C(=O)OCc2c1cc1n(c2=O)Cc2c-1nc1cc(F)c(C)cc1c2CN1CCC(C2(O)CCC2)CC1 [Example 30, (S)-4-ethyl-8-fluoro-4-hydroxy-11-((4-(1-hydroxycyclobutyl)piperidin-1-yl)methyl)-9-methyl-1H-pyrano[3′,4′:6,7] indolizino[1,2-b]quinoline-3,14(4H,12H)-dione] | 28.6 | –
CC[C@@]1(O)C(=O)OCc2c1cc1n(c2=O)Cc2c-1nc1cc(F)c(C)cc1c2CN1CCCC1CO (stereo partly drawn) [Example 5, (4S)-4-ethyl-8-fluoro-4-hydroxy-11-((2-(hydroxymethyl)pyrrolidin-1-yl)methyl)-9-methyl-1H-pyrano[3′,4′:6,7] indolizino[1,2-b]quinoline-3,14(4H,12H)-dione] | 65 | –
CC[C@@]1(O)C(=O)OCc2c1cc1n(c2=O)Cc2c-1nc1cc(F)c(OC)cc1c2CN1CCC([C@@H](C)O)CC1 [Example 41, (S)-4-ethyl-8-fluoro-4-hydroxy-11-((4-((R)-1-hydroxyethyl)piperidin-1-yl)methyl)-9-methoxy-1,12-dihydro-14H-pyrano[3′,4′:6,7] indolizino[1,2-b]quinoline-3,14(4H)-dione] | 31 | –
CC[C@@]1(O)C(=O)OCc2c1cc1n(c2=O)Cc2c-1nc1cc(F)c(C)cc1c2CN1CCCC1(C)CO (stereo partly drawn) [Example 21, (4S)-4-ethyl-8-fluoro-4-hydroxy-11-((2-(hydroxymethyl)-2-methylpyrrolidin-1-yl)methyl)-9-methyl-1H-pyrano[3′,4′:6,7] indolizino[1,2-b]quinoline-3,14(4H,12H)-dione] | 55 | –
CC[C@@]1(O)C(=O)OCc2c1cc1n(c2=O)Cc2c-1nc1cc3c(cc1c2CN1C[C@@H]2CCC[C@@H]2[C@H]1CO)OCCO3 [Example 45] | 53 | –
CC[C@@]1(O)C(=O)OCc2c1cc1n(c2=O)Cc2c-1nc1cc(F)c(C)cc1c2CN1CCC(O)CC1 [Example 16, (S)-4-ethyl-8-fluoro-4-hydroxy-11-((4-hydroxypiperidin-1-yl)methyl)-9-methyl-1H-pyrano[3′,4′:6,7] indolizino[1,2-b]quinoline-3,14(4H,12H)-dione] | 81 | –
CC[C@@]1(O)C(=O)OCc2c1cc1n(c2=O)Cc2c-1nc1cc(F)c(C)cc1c2CN1CCC(O)C1 (stereo partly drawn) [Example 2, (4S)-4-ethyl-8-fluoro-4-hydroxy-11-((3-hydroxypyrrolidin-1-yl)methyl)-9-methyl-1H-pyrano[3′,4′:6,7] indolizino[1,2-b]quinoline-3,14(4H,12H)-dione] | 138 | –
CC[C@@]1(O)C(=O)OCc2c1cc1n(c2=O)Cc2c-1nc1cc(F)c(C)cc1c2CN1CCCCC1CO (stereo partly drawn) [Example 11, (4S)-4-ethyl-8-fluoro-4-hydroxy-11-((2-(hydroxymethyl)piperidin-1-yl)methyl)-9-methyl-1H-pyrano[3′,4′:6,7] indolizino[1,2-b]quinoline-3,14(4H,12H)-dione] | 60 | relative A549 cytotoxic potency in words (human, 3 days): less potent than Example 17
CC[C@@]1(O)C(=O)OCc2c1cc1n(c2=O)Cc2c-1nc1cc(F)c(C)cc1c2CN1CCCC(CO)C1 (stereo partly drawn) [Example 12, (4S)-4-ethyl-8-fluoro-4-hydroxy-11-((3-(hydroxymethyl)piperidin-1-yl)methyl)-9-methyl-1H-pyrano[3′,4′:6,7] indolizino[1,2-b]quinoline-3,14(4H,12H)-dione] | 90 | relative A549 cytotoxic potency in words (human, 3 days): less potent than Example 17
CC[C@@]1(O)C(=O)OCc2c1cc1n(c2=O)Cc2c-1nc1cc(F)c(C)cc1c2CN1CC[C@@H](O)C1=O [Example 1, (S)-4-ethyl-8-fluoro-4-hydroxy-11-(((R)-3-hydroxy-2-oxopyrrolidin-1-yl)methyl)-9-methyl-1H-pyrano[3′,4′:6,7] indolizino[1,2-b]quinoline-3,14(4H,12H)-dione] | 515 | relative A549 cytotoxic potency in words (comparison between analogs of Table 1): much less potent
CC[C@@]1(O)C(=O)OCc2c1cc1n(c2=O)Cc2c-1nc1cc3c(cc1c2CN1CCC2(CC1)CC(O)C2)OCCO3 [Example 44] | 30 | –
CC[C@@]1(O)C(=O)OCc2c1cc1n(c2=O)Cc2c-1nc1cc(F)c(C)cc1c2CN1CCC(CO)CC1 [Example 10, (S)-4-ethyl-8-fluoro-4-hydroxy-11-((4-(hydroxymethyl)piperidin-1-yl)methyl)-9-methyl-1H-pyrano[3′,4′:6,7] indolizino[1,2-b]quinoline-3,14(4H,12H)-dione] | 67 | relative A549 cytotoxic potency in words (human, 3 days): less potent than Example 17
CC[C@@]1(O)C(=O)OCc2c1cc1n(c2=O)Cc2c-1nc1cc(F)c(C)cc1c2CN1CCC(C(O)C(C)C)CC1 (stereo partly drawn) [Example 28, (4S)-4-ethyl-8-fluoro-4-hydroxy-11-((4-(1-hydroxy-2-methylpropyl)piperidin-1-yl)methyl)-9-methyl-1H-pyrano[3′,4′:6,7] indolizino[1,2-b]quinoline-3,14(4H,12H)-dione] | 74.2 | –
CC[C@@]1(O)C(=O)OCc2c1cc1n(c2=O)Cc2c-1nc1cc(F)c(C)cc1c2CN1CC(O)C1 [Example 9, (S)-4-ethyl-8-fluoro-4-hydroxy-11-((3-hydroxyazetidin-1-yl)methyl)-9-methyl-1H-pyrano[3′,4′:6,7] indolizino[1,2-b]quinoline-3,14(4H,12H)-dione] | 550 | –
CC[C@@]1(O)C(=O)OCc2c1cc1n(c2=O)Cc2c-1nc1cc(F)c(C)cc1c2CN1CCC(C(O)C(F)(F)F)CC1 (stereo partly drawn) [Example 29, (4S)-4-ethyl-8-fluoro-4-hydroxy-9-methyl-11-((4-(2,2,2-trifluoro-1-hydroxyethyl)piperidin-1-yl)methyl)-1H-pyrano[3′,4′:6,7] indolizino[1,2-b]quinoline-3,14(4H,12H)-dione] | 29.8 | –
CC[C@@]1(O)C(=O)OCc2c1cc1n(c2=O)Cc2c-1nc1cc(F)c(C)cc1c2CN1CCCC(O)C1 (stereo partly drawn) [Example 17, (4S)-4-ethyl-8-fluoro-4-hydroxy-11-((3-hydroxypiperidin-1-yl)methyl)-9-methyl-1H-pyrano[3′,4′:6,7] indolizino[1,2-b]quinoline-3,14(4H,12H)-dione] | 38 | relative A549 cytotoxic potency in words: most potent compound
CC[C@@]1(O)C(=O)OCc2c1cc1n(c2=O)Cc2c-1nc1cc(F)c(C)cc1c2CN1CCC[C@H](O)C1 [Example 19, (S)-4-ethyl-8-fluoro-4-hydroxy-11-(((S)-3-hydroxypiperidin-1-yl)methyl)-9-methyl-1H-pyrano[3′,4′:6,7] indolizino[1,2-b]quinoline-3,14(4H,12H)-dione] | 15.7 | relative A549 cytotoxic potency in words (human, 3 days): more potent than Example 17
